Data from PubChem BioAssay AID1963839 (Molecular Pharmacology Branch, DTP, NCI, 2024).

System: 817829-284-R-J1-PDC complex spheroid viability
Experiment: Anticancer human tumor 817829-284-R-J1-PDC patient-derived colon adenocarcinoma cell line growth inhibition [POLQ]
Conditions: for IC50: curve of first compound; for viability, T/C: stronger effect = lower value
Method: Multicellular complex tumor spheroid response to Polymerase (POL) inhibitors (novobiocin, ART-558, RP6685) in combination with a variety of drugs and investigational agents in selected tumor cell lines
The POL inhibitors (novobiocin, ART-558, and RP6685) were evaluated both individually and in combination with standard of care and investigational anticancer small molecules within a complex spheroid model of solid tumors. . Complex spheroids include a stromal component modeled by human endothelial cells (HUVEC) and fibroblasts modeled by human mesenchymal stem cells (MSCs). The concentration ranges selected for each drug and investigational agent were based upon clinically achievable concentrations if the clinical Cmax of the agent was known.
Compounds. The drugs and investigational agents: novobiocin (NSC847541), ART-558 (NSC835418), RP-6685 (NSC848927), peposertib (NSC802822), ceralasertib (NSC780249), elimusertib (NSC800525), camonsertib (NSC841442), AZD-1390 (NSC803789), olaparib (NSC753686), talazoparib (NSC767125), rucaparib (NSC756644), sotorasib (NSC818433), MRTX-1133 (NSC836407), SN-38 (NSC673596), topotecan (NSC609699), epotoside (NSC141540), doxorubicin (NSC123127), gemcitabine (NSC613327), 5-fluorouracil (NSC19893), paclitaxel (NSC125973), vemurafenib (NSC761431), MSA-2 (NSC828583), SN-011 (NSC837082), adavosertib (NSC754352), prexasertib (NSC758257), carboplatin (NSC241240) and oxaliplatin (NSC266046), were obtained from the National Cancer Institute (NCI) Developmental Therapeutics Program Chemical Repository (21). The FDA-approved anticancer drug set is available from the Developmental Therapeutics Program at https://dtp.cancer.gov/organization/dscb/obtaining/. […] The stock solutions were prepared in dimethyl sulfoxide (DMSO, Sigma-Aldrich, St. Louis, MO, cat. D2650), except for the platinum compounds which were prepared in saline (Quality Biological, Gaithersburg, MD, cat. 114-055-101), at 800-fold the tested concentration and stored at -70 degrees C prior to their use. All drugs and investigational agents were tested over a range starting from a high concentration at or near the clinical Cmax and decreasing in half-log increments. If the clinical Cmax for an agent had not been determined, the highest concentration tested was 10 microM, except for SN-38, which was tested at a high concentration of 1 microM.
Cell Culture. All cells were maintained in an incubator at 37 degrees C and 5% CO2 with 95% humidity. The PDC lines were cultured according to standard operating procedures established by the NCI PDMR (https://pdmr.cancer.gov). Table 3 of the manuscript, lists the cell lines along with the number of the three cell types plated to form the mct-spheroids and media for tumor cell growth. After thawing, all PDC lines, except 997537-175-T-J1-PDC and 415267-285-R-J2-PDC, were cultured in Matrigel-coated flasks prepared with a working solution of 1X Ham's F-12 nutrient mix, without supplementation (Thermo Fisher Scientific, cat. 11765054), 100 U/mL penicillin-streptomycin (Thermo Fisher Scientific, cat. 15140122), and 2.5% Matrigel (Corning Inc., Corning, NY, cat. 354248) for the first three passages. The two PDC lines 997537-175-T-J1-PDC and 415267-285-R-J2-PDC were cultured on uncoated flasks. The 857933-349-R-J2-PDC line was cultured in 6C/Colon 1B media containing advanced DMEM/F-12 (Thermo Fisher Scientific, cat. 12634028), 10 mM HEPES (Thermo Fisher Scientific, cat. 15630080), 1X GlutaMAX supplement (Thermo Fisher Scientific, cat. 35050061), 0.1 mg/mL primocin (InvivoGen, San Diego, CA, cat. ant-pm-2), 10% defined fetal bovine serum, heat inactivated (HyClone Laboratories Inc., Logan, UT, cat. SH30070.03HI), 50% L-WRN conditioned media (ATCC, cat. CRL-3276), 1.25 mM N-Acetyl-L-cysteine (Sigma-Aldrich, cat. A9165), 10 mM nicotinamide (Sigma-Aldrich, cat. N0636), 1X B-27 supplement (Thermo Fisher Scientific, cat. 17504044), 1X N-2 supplement (Thermo Fisher Scientific, cat. […]

[1] = second compound 0.0316 µM, first compound 0.0316 µM
[2] = second compound 0.0316 µM, first compound 0.1 µM
[3] = second compound 0.0316 µM, first compound 0.316 µM
[4] = second compound 0.0316 µM, first compound 1 µM
[5] = second compound 0.0316 µM, first compound 3.16 µM
[6] = second compound 0.0316 µM, first compound 10 µM
[7] = second compound 0.1 µM, first compound 0.0316 µM
[8] = second compound 0.1 µM, first compound 0.1 µM
[9] = second compound 0.1 µM, first compound 0.316 µM
[10] = second compound 0.1 µM, first compound 1 µM
[11] = second compound 0.1 µM, first compound 3.16 µM
[12] = second compound 0.1 µM, first compound 10 µM
[13] = second compound 0.316 µM, first compound 0.0316 µM
[14] = second compound 0.316 µM, first compound 0.1 µM
[15] = second compound 0.316 µM, first compound 0.316 µM
[16] = second compound 0.316 µM, first compound 1 µM
[17] = second compound 0.316 µM, first compound 3.16 µM
[18] = second compound 0.316 µM, first compound 10 µM
[19] = second compound 1 µM, first compound 0.0316 µM
[20] = second compound 1 µM, first compound 0.1 µM
[21] = second compound 1 µM, first compound 0.316 µM
[22] = second compound 1 µM, first compound 1 µM
[23] = second compound 1 µM, first compound 3.16 µM
[24] = second compound 1 µM, first compound 10 µM
[25] = second compound 3.16 µM, first compound 0.0316 µM
[26] = second compound 3.16 µM, first compound 0.1 µM
[27] = second compound 3.16 µM, first compound 0.316 µM
[28] = second compound 3.16 µM, first compound 1 µM
[29] = second compound 3.16 µM, first compound 3.16 µM
[30] = second compound 3.16 µM, first compound 10 µM
[31] = second compound 10 µM, first compound 0.0316 µM
[32] = second compound 10 µM, first compound 0.1 µM
[33] = second compound 10 µM, first compound 0.316 µM
[34] = second compound 10 µM, first compound 1 µM
[35] = second compound 10 µM, first compound 3.16 µM
[36] = second compound 10 µM, first compound 10 µM
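Further: spheroids exposed to compounds for 7 days.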
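Wherever viability, T/C is given: 100% = DMSO vehicle-treated spheroids.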

`O=C(Nc1ccc(O)c(NS(=O)(=O)c2ccc(F)cc2)c1)c1ccc(-c2ccccc2)cc1` + COC1C(OC(N)=O)C(O)C(Oc2ccc3c(O)c(NC(=O)c4ccc(O)c(CC=C(C)C)c4)c(=O)oc3c2C)OC1(C)C was tested, and the IC50 (second compound 0.0316 µM) was 7820 nM, the IC50 (second compound 0.1 µM) was 7150 nM and the IC50 (second compound 0.316 µM) was 5730 nM. It also gave an IC50 (second compound 1 µM) of 6350 nM, an IC50 (second compound 3.16 µM) of 6530 nM and an IC50 (second compound 10 µM) of 7400 nM. The viability, T/C [1] was 114%, the viability, T/C [2] was 68.6% and the viability, T/C [3] was 95.2%. It also gave a viability, T/C [4] of 72.2%, a viability, T/C [5] of 72.9% and a viability, T/C [6] of 38.4%. For the same compound, the viability, T/C [7] was 74.9%, the viability, T/C [8] was 108% and the viability, T/C [9] was 79.2%. It also gave a viability, T/C [10] of 101%, a viability, T/C [11] of 84% and a viability, T/C [12] of 36%. It also gave a viability, T/C [13] of 91.5%, a viability, T/C [14] of 106% and a viability, T/C [15] of 90.4%. For the same compound, the viability, T/C [16] was 87.7%, the viability, T/C [17] was 68.9% and the viability, T/C [18] was 32.4%. It also gave a viability, T/C [19] of 100%, a viability, T/C [20] of 84.8% and a viability, T/C [21] of 107%. It also gave a viability, T/C [22] of 84.7%, a viability, T/C [23] of 66.6% and a viability, T/C [24] of 39.6%. For the same compound, the viability, T/C [25] was 91.9%, the viability, T/C [26] was 100% and the viability, T/C [27] was 103%. The viability, T/C [28] was 103%, the viability, T/C [29] was 68.5% and the viability, T/C [30] was 39.1%. The viability, T/C [31] was 82.8%, the viability, T/C [32] was 109% and the viability, T/C [33] was 99.6%. The viability, T/C [34] was 109%, the viability, T/C [35] was 66.7% and the viability, T/C [36] was 44.1%.
For `COc1cc(C2c3cc4c(cc3C(OC3OC5COC(C)OC5C(O)C3O)C3COC(=O)C23)OCO4)cc(OC)c1O` (stereo unspecified) + Cc1cccc(N(C)C(=O)C2C(O)CCN2c2nc(C)cc(C(F)(F)F)c2C#N)c1, the IC50 (second compound 0.0316 µM) was 55.1 nM, the IC50 (second compound 0.1 µM) was 56.6 nM and the IC50 (second compound 0.316 µM) was 72.1 nM. For the same compound, the IC50 (second compound 1 µM) was 48.6 nM, the IC50 (second compound 3.16 µM) was 47.5 nM and the IC50 (second compound 10 µM) was 45 nM. For the same compound, the viability, T/C [1] was 68.8%, the viability, T/C [2] was 29.6% and the viability, T/C [3] was 15.7%. For the same compound, the viability, T/C [4] was 17.2%, the viability, T/C [5] was 11.5% and the viability, T/C [6] was 5.61%. The viability, T/C [7] was 65.9%, the viability, T/C [8] was 34.4% and the viability, T/C [9] was 11.6%. It also gave a viability, T/C [10] of 20.5%, a viability, T/C [11] of 13.7% and a viability, T/C [12] of 6.16%. It also gave a viability, T/C [13] of 71.5%, a viability, T/C [14] of 41.7% and a viability, T/C [15] of 15.8%. The viability, T/C [16] was 16.7%, the viability, T/C [17] was 12.2% and the viability, T/C [18] was 7.12%. The viability, T/C [19] was 63.2%, the viability, T/C [20] was 26.5% and the viability, T/C [21] was 18.9%. The viability, T/C [22] was 19.1%, the viability, T/C [23] was 14.4% and the viability, T/C [24] was 6.32%. It also gave a viability, T/C [25] of 57.4%, a viability, T/C [26] of 38.2% and a viability, T/C [27] of 18%. For the same compound, the viability, T/C [28] was 15.7%, the viability, T/C [29] was 12.5% and the viability, T/C [30] was 6.13%. It also gave a viability, T/C [31] of 59.6%, a viability, T/C [32] of 26.6% and a viability, T/C [33] of 22.6%. The viability, T/C [34] was 17.6%, the viability, T/C [35] was 11.6% and the viability, T/C [36] was 5.64%.
With `Nc1ccn(C2OC(CO)C(O)C2(F)F)c(=O)n1` (stereo unspecified) + Cc1cccc(N(C)C(=O)C2C(O)CCN2c2nc(C)cc(C(F)(F)F)c2C#N)c1 the IC50 (second compound 0.0316 µM) was < 31.6 nM, the IC50 (second compound 0.1 µM) was < 31.6 nM and the IC50 (second compound 0.316 µM) was < 31.6 nM. The IC50 (second compound 1 µM) was < 31.6 nM, the IC50 (second compound 3.16 µM) was < 31.6 nM and the IC50 (second compound 10 µM) was < 31.6 nM. The viability, T/C [1] was 4.93%, the viability, T/C [2] was 6.34% and the viability, T/C [3] was 5.78%. The viability, T/C [4] was 4.47%, the viability, T/C [5] was 4.13% and the viability, T/C [6] was 3%. The viability, T/C [7] was 5.1%, the viability, T/C [8] was 4.91% and the viability, T/C [9] was 5.63%. The viability, T/C [10] was 4.62%, the viability, T/C [11] was 3.58% and the viability, T/C [12] was 2.89%. For the same compound, the viability, T/C [13] was 6.1%, the viability, T/C [14] was 5.35% and the viability, T/C [15] was 5.35%. For the same compound, the viability, T/C [16] was 5.17%, the viability, T/C [17] was 4.11% and the viability, T/C [18] was 2.77%. The viability, T/C [19] was 4.92%, the viability, T/C [20] was 5.99% and the viability, T/C [21] was 4.9%. The viability, T/C [22] was 4.77%, the viability, T/C [23] was 3.54% and the viability, T/C [24] was 2.95%. It also gave a viability, T/C [25] of 5.03%, a viability, T/C [26] of 5.55% and a viability, T/C [27] of 6.02%. The viability, T/C [28] was 4.31%, the viability, T/C [29] was 4.69% and the viability, T/C [30] was 3.24%. The viability, T/C [31] was 6.79%, the viability, T/C [32] was 5.07% and the viability, T/C [33] was 5.13%. For the same compound, the viability, T/C [34] was 4.16%, the viability, T/C [35] was 4.17% and the viability, T/C [36] was 2.99%.
